Measurements published in patent publication US6107517A, “Thyroid hormone analogues and methods for their preparation” (The Regents of the University of California, priority 1999, dated 2000).
pKd: −log10 of the molar value.

Assays:
[1] = molecular target: T1, hTRα (Homo sapiens, UniProt P10827); experiment: Receptor binding assay: competition with [125I]T3 for binding to recombinant hTRα
T1 construct: made in house; host or cells: E. coli
T1 sequence (P10827 1-410 isoform P10827-2): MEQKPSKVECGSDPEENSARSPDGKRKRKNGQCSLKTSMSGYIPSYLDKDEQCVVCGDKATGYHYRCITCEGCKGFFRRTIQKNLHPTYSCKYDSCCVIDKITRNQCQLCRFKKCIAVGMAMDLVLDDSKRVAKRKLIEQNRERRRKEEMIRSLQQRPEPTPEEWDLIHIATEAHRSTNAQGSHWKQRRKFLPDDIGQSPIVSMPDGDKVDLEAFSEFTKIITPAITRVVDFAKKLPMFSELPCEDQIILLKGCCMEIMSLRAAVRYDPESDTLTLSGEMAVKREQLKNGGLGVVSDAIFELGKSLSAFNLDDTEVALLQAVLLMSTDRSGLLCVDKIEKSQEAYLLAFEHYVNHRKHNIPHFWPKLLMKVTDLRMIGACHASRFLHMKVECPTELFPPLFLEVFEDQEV
Protocol: (§1) To test the ability of synthesized human thyroid receptor (hTR) ligands to bind to two subtypes of hTR, hTRα and hTRβ, the binding affinity of a TR ligand for a TR can be assayed using TRs expressed in E. coli and [^125 I ] […] The binding affinity of a ligand for its receptor is defined by a constant termed Kd and can be calculated using a curve fitting program.
(§2) The ability of [^125 I] […] In control experiments, either purified recombinant hTRα or hTRβ was incubated with [^125 I] […] To test the analogues, either purified recombinant hTRα or hTRβ was incubated with [^125 I]

[2] = tested on: HeLa cells; experiment: Toxicity in HeLa cells (change in cell morphology, or lifting off of cells from a growth surface); assay type: cell-based
[3] = tested on: β-galactosidase reporter gene construct (HeLa cells); experiment: β-galactosidase reporter control expression in HeLa cells; assay type: cell-based; settings: 1nM T3 or Compound (I-1) 10^-6 M to 10^-5 M
Description: (§3) For transfections, cells are trypsinized, resuspended in buffer (PBS, 0.1% glucose), and mixed with a reporter gene construct and with or without the appropriate thyroid receptor (TR) expression vectors (CMV TR β1,CMV TR α1). One such reporter gene construct consists of a synthetic TR response element (DR-4) containing two copies of a direct repeat spaced by four nucleotides (AGGTCA-caggAGGTCA) cloned into the HindIII site of the pUC19 polylinker immediately upstream of a minimal (-32/+45) thymidine kinase promoter linked to luciferase coding sequences. Another reporter gene construct that can be used consists of the β-galactosidase coding sequence fused downstream of an actin promoter.
Cells in 0.5 ml of buffer (8+/-2 million cells) are electroporated using a Bio-Rad gene pulser at 0.35 kvolts and 960 microfarads. […] After incubation at 37° C. for 24 hours, incubation media is discarded and the cells are detached with 1 ml of calcium/magnesium-free PBS, 1mM EDTA, prewarmed at 37° C., and transferred to 1.5 ml Eppendorf tubes. Cells are pelleted by centrifugation in a microfuge for 15 seconds at room temperature. The supernatants are aspirated and the pellets are lysed by addition of 120 μl of Tris-Cl 0.25 M pH 7.6, 0.1% Triton. […] The light output is measured for 10 sec at room temperature with a luminometer (Analytical Luminescence Laboratory, MONOLIGHT^R 1500).

[4] = molecular target: T2, hTRβ (Homo sapiens, UniProt P10828); experiment: Receptor binding assay: competition with [125I]T3 for binding to recombinant hTRβ
T2 construct: expressed in transfected cells; host or cells: HeLa cells
T2 sequence (P10828 1-461): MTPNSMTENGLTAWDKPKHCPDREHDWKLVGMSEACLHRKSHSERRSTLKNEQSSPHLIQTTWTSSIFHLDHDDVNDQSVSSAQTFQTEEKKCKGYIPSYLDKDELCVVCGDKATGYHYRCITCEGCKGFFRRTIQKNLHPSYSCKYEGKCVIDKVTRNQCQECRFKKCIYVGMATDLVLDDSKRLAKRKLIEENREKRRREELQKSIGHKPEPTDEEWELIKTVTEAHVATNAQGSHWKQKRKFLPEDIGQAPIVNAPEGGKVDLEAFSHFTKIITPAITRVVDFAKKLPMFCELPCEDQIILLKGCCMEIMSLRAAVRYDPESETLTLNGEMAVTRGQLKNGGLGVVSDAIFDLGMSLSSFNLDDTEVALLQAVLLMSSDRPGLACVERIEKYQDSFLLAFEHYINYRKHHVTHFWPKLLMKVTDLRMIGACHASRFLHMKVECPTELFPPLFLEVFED
Protocol: as §1, §2

[5] = molecular target: T1, hTRα; experiment: Cellular transcription (luciferase) assay in HeLa cells overexpressing hTRα; assay type: cell-based; settings: for activation of transcription via hTRα (luciferase): 24 hours at 37° C., T3 10^-12 to 10^-7 M, I-3 10^-10 to 3×10^-5 M, I-1 10^-9 to 3×10^-5 M
Protocol: (§4) Cellular transactivation assays can be performed according to the procedure in Ribeiro R. C. et al. (1996) J. Biol. Chem. 271, 17147-17151. Briefly, HeLa cells are grown in 15 cm dishes in DME H-21, 4.5 g/L glucose with 10% newborn bovine serum, 2 mM glutamine, 50 units/ml penicillin, and 50 μg/ml streptomycin.
as §3
(§5) Cells in 0.5 ml of buffer (8+/-2 million cells) are electroporated using a Bio-Rad gene pulser at 0.35 kvolts and 960 microfarads. […] After incubation at 37° C. for 24 hours, incubation media is discarded and the cells are detached with 1 ml of calcium/magnesium-free PBS, 1mM EDTA, prewarmed at 37° C., and transferred to 1.5 ml Eppendorf tubes. Cells are pelleted by centrifugation in a microfuge for 15 seconds at room temperature. The supernatants are aspirated and the pellets are lysed by addition of 120 μl of Tris-Cl 0.25 M pH 7.6, 0.1% Triton. After resuspension by vortexing for 5-10 sec, the lysates are pelleted by centrifugation in a microfuge for 5 min at room temperature. One hundred μl of each Eppendorf tube lysate is added to 300 μl of 25 mM glycylglycine pH 7.8, 15 mM MgSO4, 4 mM EGTA, 15 mM potassium phosphate pH 7.8, 1 mM DTT, 2 mM ATP, and 0.2 mM Luciferine. The light output is measured for 10 sec at room temperature with a luminometer (Analytical Luminescence Laboratory, MONOLIGHT^R 1500). […]

[6] = molecular target: T2, hTRβ; experiment: Cellular transcription (luciferase) assay in HeLa cells overexpressing hTRβ; assay type: cell-based; settings: for activation of transcription via hTRβ (luciferase): 24 hours at 37° C., T3 10^-12 to 10^-7 M, I-3 10^-10 to 3×10^-5 M, I-1 10^-9 to 3×10^-5 M
Protocol: as §4, §3, §5

[7] = tested on: luciferase reporter gene (HeLa cells); experiment: Luciferase activity in HeLa cells containing reporter constructs but no overexpressed hTRs; assay type: cell-based; settings: highest concentration [10^-5]
Protocol: as §4, §3
Cells in 0.5 ml of buffer (8+/-2 million cells) are electroporated using a Bio-Rad gene pulser at 0.35 kvolts and 960 microfarads. […] The light output is measured for 10 sec at room temperature with a luminometer (Analytical Luminescence Laboratory, MONOLIGHT^R 1500).

[8] = tested on: TRβ; settings: literature / earlier patent; cited from earlier work

| SMILES | pKd [1] | expression of β-galactosidase [3] | pKd [4] | activation of transcription via hTRα (luciferase) [5] | activation of transcription via hTRβ (luciferase) [6] | other results |
| --- | --- | --- | --- | --- | --- | --- |
| CCCCN(C)C(=O)CCCCCCCCCCC(c1ccc(O)c(C(C)C)c1)c1c(C)cc(OCC(=O)O)cc1C (centres unmarked) [Compound I-1] | ~7.11 | not affected | ~6.74 | did not appear to activate hTR-mediated transcription | did not appear to activate hTR-mediated transcription | concentration at which toxicity was observed [2]: 10 µM; competition with T3 / antagonism, hTRα [5]: still able to compete with T3; competition with T3 / antagonism, hTRβ [6]: still able to compete with T3; luciferase activity without cotransfected TR-expression construct [7]: occurs even when a TR-expression construct is not cotransfected into HeLa cells |
| CCCCN(C)C(=O)CCCCCC/C=C\CCC(c1ccc(O)c(C(C)C)c1)c1c(C)cc(OCC(=O)O)cc1C (centres unmarked) [Compound I-2] | ~6.63 |  | ~6.14 |  |  |  |
| C=CCC(c1ccc(O)c(C(C)C)c1)c1c(C)cc(OCC(=O)O)cc1C (centres unmarked) [Compound I-3] | ~6.86 |  | ~7.44 | able to stimulate transcription and translation of the luciferase gene through both subtypes of hTR, though to a lesser degree than. T3 | able to stimulate transcription and translation of the luciferase gene through both subtypes of hTR, though to a lesser degree than. T3 |  |
| N[C@@H](Cc1cc(I)c(Oc2ccc(O)c(I)c2)c(I)c1)C(=O)O [Compound T3, 3,5,3'-triiodo-L-thyronine, reference compound] |  | not affected |  |  |  |  |
| Cc1cc(OCC(=O)O)cc(C)c1Cc1ccc(O)c(C(C)C)c1 [GC-1] |  |  |  |  |  | affinity and TR subtype selectivity (background) [8]: high affinity TRP-selective agonist ligand |
